The test system of this assay is learning and memory process of mouse. As to the kind of experiment: platform-jumping electrical-shock avoidance test, learning and 24 h memory, scopolamine-induced impediment. The assay is classed as in vivo. To be noted: for Memory Results EN / Memory Results RT / Learning Results EN / Learning Results RT: scopolamine 1 mg/kg; for Memory Results EN / Memory Results RT: memory test 24 hrs later; for Learning Results EN / Learning Results RT: training trial. On the procedure: The pharmacological tests of memory-enhancing peptide in this invention have been performed as following: the animals have been divided into three groups: drug administration group, control group and model group, with each group administrated with memory-enhancing peptide, saline and scopolamine respectively. In the test, the groups except control group were injected with scopolamine after the administration of medicine about 50 min., 10 min. later, the training began. First, the animals will be put into reaction box for 3 min. before each trails to familiarize them with the environment. Then, the reaction box are charged with 36V alternating current. When the animal subjects to electrical shock, it will jump up to the central platform to avoid harmful stimulation as a normal response. Most of animals may be return to the copper curdles twice or even more times, but they will jump back to the platform swiftly as the results of electrical shock. Each test trail will be performed for 5 min. and two following indices will be used to represent the learning results: (I) the number of total error (EN) during the whole training period; (2) the reaction time (RT) for the first returning to the copper curdle in the trail. The trails will repeat again 24 hrs later as memory test.

This note sets out measurements from patent US7119063B2, “Memory-enhancing peptides and the use thereof” (Shanghai Cas Intide Biotech Co., Ltd., priority 2000, dated 2006).

With “PyroGlu-Asn-Cys(S-Bu^t)-Pro-Arg [MEP-531]”, the “effect on memory and learning impediment induced by scopolamine, compared with model group” value (0.5 μg and 1 μg/kg, longer incubation period and lesser error numbers, P<0.01) is “obviously improve”. In addition, the “effect on memory and learning impediment induced by scopolamine, compared with Huperzine A (100 μg/kg)” value (0.5 μg/kg and 1 μg/kg) is listed as “better effects than Huperzine A”. Also, under “drug 0.25 μg/kg”, the “Memory Results EN” value is on record as 0.9, the “Memory Results RT” value was found to be 197.6 s, the “Learning Results EN” value turned out to be 0.3 and the “Learning Results RT” value is 78.8 s. For the same compound, under “drug 0.5 μg/kg”, the “Memory Results EN” value was 0.5, the “Memory Results RT” value was 245.5 s, the “Learning Results EN” value turned out to be 0.2 and the “Learning Results RT” value is on record as 241.6 s. For the setting “drug 1 μg/kg”, the “Memory Results EN” value was 0.3, the “Memory Results RT” value is reported as 282.8 s, the “Learning Results EN” value is 0.3 and the “Learning Results RT” value was 267.6 s. For the same compound, the “effect on memory and learning impediment induced by scopolamine (summary of Table 1)” value (mouse, in vivo) is “remarkably ameliorate”.
As for `C/C=C1\[C@H]2C=C(C)C[C@]1(N)c1ccc(=O)[nH]c1C2` [Huperzine A, reference compound], under “drug 100 μg/kg”, the “Memory Results EN” value is reported as 0.9 and the “Memory Results RT” value was determined as 231.9 s. Further, the “Learning Results EN” value (drug 100 μg/kg, number of total errors) is given as 1.3. Moreover, where the note is “drug 100 μg/kg, reaction time for first return to the copper curdle”, the “Learning Results RT” value came to 120.5 s.
